Test results taken from the supplement of paper PMC10307832.

Key:
Experiment in all cases: relative viability (nuclei count vs DMSO), 5 days (fraction); higher = more cells survive
Motesanib + Navitoclax = compound: CC1(C)CNc2cc(NC(=O)c3cccnc3NCc3ccncc3)ccc21 [Motesanib] + CC1(C)CCC(c2ccc(Cl)cc2)=C(CN2CCN(c3ccc(C(=O)NS(=O)(=O)c4ccc(N[C@H](CCN5CCOCC5)CSc5ccccc5)c(S(=O)(=O)C(F)(F)F)c4)cc3)CC2)C1 [Navitoclax] (partner 0.5 µM)
How it was run: (§1)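 After 5 days of treatment, lung cancer cells in 1536-well plates were fixed and stained in a single step (final 0.05% Triton X-100, 1% formaldehyde, 1 ug/ml Hoechst) and their nuclei counted on 4× images. Treatment had been applied by pin tool the day after seeding as one drug alone or as a fixed anchor-drug dose with five library-drug doses (not always all listed) in √10 steps. Relative viability is the nuclei count of treated wells divided by that of vehicle wells, and values are medians of duplicate plates.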

Motesanib + Phenformin = compound: CC1(C)CNc2cc(NC(=O)c3cccnc3NCc3ccncc3)ccc21 [Motesanib] + N=C(N)NC(=N)NCCc1ccccc1 [Phenformin] (partner 250 µM)
How it was run: as §1

[1] = compound: C[C@@]1(C(=O)Nc2ccc(F)nc2)CCCN1c1nc(Nc2cc(C3CC3)n[nH]2)c2cccn2n1 + CCNC(=O)c1noc(-c2cc(C(C)C)c(O)cc2O)c1-c1ccc(CN2CCOCC2)cc1 [Luminespib] (partner 0.01 µM)
How it was run: as §1

[2] = compound: C[C@@]1(C(=O)Nc2ccc(F)nc2)CCCN1c1nc(Nc2cc(C3CC3)n[nH]2)c2cccn2n1 + Cc1nc(NC(=O)N2CCC[C@H]2C(N)=O)sc1-c1ccnc(C(C)(C)C(F)(F)F)c1 [Alpelisib] (partner 2 µM)
How it was run: as §1

| Cell Line | relative viability (Motesanib + Navitoclax; first compound 0.01 µM) | relative viability (Motesanib + Navitoclax; first compound 0.03162 µM) | relative viability (Motesanib + Navitoclax; first compound 0.1 µM) | relative viability (Motesanib + Navitoclax; first compound 0.3162 µM) | relative viability (Motesanib + Navitoclax; first compound 1 µM) | relative viability (Motesanib + Phenformin; first compound 0.01 µM) | relative viability (Motesanib + Phenformin; first compound 0.03162 µM) | relative viability (Motesanib + Phenformin; first compound 0.1 µM) | relative viability (Motesanib + Phenformin; first compound 0.3162 µM) | relative viability (Motesanib + Phenformin; first compound 1 µM) | relative viability ([1]; first compound 0.04 µM) | relative viability ([1]; first compound 0.1265 µM) | relative viability ([1]; first compound 0.4 µM) | relative viability ([1]; first compound 1.265 µM) | relative viability ([2]; first compound 0.04 µM) | relative viability ([2]; first compound 0.1265 µM) | relative viability ([2]; first compound 0.4 µM) | relative viability ([2]; first compound 1.265 µM) |
| --- | --- | --- | --- | --- | --- | --- | --- | --- | --- | --- | --- | --- | --- | --- | --- | --- | --- | --- |
| NCI-H441 | 0.706 | 0.729 | 0.627 | 0.641 | 0.796 | 0.895 | 0.873 | 0.845 | 0.913 | 0.822 | 0.258 | 0.175 | 0.221 | 0.267 | 0.616 | 0.547 | 0.492 | 0.56 |
| NCI-H460 | 1.15 | 1.05 | 1.09 | 1.14 | 1.24 | 0.478 | 0.455 | 0.54 | 0.549 | 0.527 | 0.0318 | 0.0246 | 0.0368 | 0.0359 | 0.401 | 0.207 | 0.222 | 0.389 |
| NCI-H520 | 1.12 | 0.982 | 1.1 | 1.03 | 1.04 | 0.538 | 0.671 | 0.468 | 0.587 | 0.499 | 0.214 | 0.242 | 0.267 | 0.211 | 0.918 | 0.688 | 0.926 | 0.801 |
| NCI-H596 | 0.962 | 0.893 | 0.9 | 0.879 | 1.1 | 0.779 | 0.861 | 0.67 | 0.724 | 0.85 | 0.819 | 0.885 | 0.88 | 1.17 | 0.573 | 0.264 | 0.356 | 0.471 |
| NCI-H647 | 1.26 | 1.49 | 1.28 | 1.19 | 1.18 | 0.491 | 0.554 | 0.462 | 0.657 | 0.524 | 0.152 | 0.245 | 0.181 | 0.164 | 1.24 | 0.957 | 0.864 | 0.913 |
| NCI-H727 | 0.519 | 0.349 | 0.321 | 0.52 | 0.446 | 0.408 | 0.613 | 0.664 | 0.587 | 0.487 | 0.34 | 0.319 | 0.249 | 0.249 | 0.33 | 0.24 | 0.221 | 0.303 |
| NCI-H838 | 1.25 | 1.21 | 1.09 | 1.25 | 1.14 | 0.547 | 0.667 | 0.514 | 0.745 | 0.656 | 0.296 | 0.291 | 0.183 | 0.338 | 1.05 | 0.819 | 0.815 | 0.982 |
| NCI-H1355 | 0.994 | 0.946 | 0.882 | 1.06 | 0.957 | 0.436 | 0.416 | 0.49 | 0.482 | 0.475 | 0.669 | 0.517 | 0.577 | 0.696 | 0.816 | 0.758 | 0.613 | 0.868 |
| NCI-H1395 | 1.22 | 1.06 | 1.27 | 1.17 | 1.27 | 0.437 | 0.431 | 0.406 | 0.543 | 0.433 | 0.768 | 0.717 | 0.583 | 0.889 | 0.988 | 0.719 | 1.15 | 1.1 |
| NCI-H1437 | 1.09 | 1.05 | 1.07 | 1.11 | 1.13 | 0.287 | 0.282 | 0.282 | 0.316 | 0.305 | 1.18 | 1.19 | 1.01 | 1.02 | 0.722 | 0.561 | 0.581 | 0.717 |
| NCI-H1651 | 1.08 | 0.946 | 1.09 | 0.994 | 1 | 0.295 | 0.367 | 0.342 | 0.352 | 0.339 | 0.916 | 0.715 | 0.768 | 0.71 | 0.86 | 0.785 | 0.779 | 0.904 |
| NCI-H1666 | 0.947 | 0.979 | 0.99 | 1.05 | 0.88 | 0.558 | 0.552 | 0.591 | 0.607 | 0.612 | 0.915 | 0.932 | 0.825 | 0.812 | 0.825 | 0.798 | 0.742 | 0.585 |
| NCI-H1734 | 0.861 | 0.915 | 0.796 | 0.959 | 0.938 | 0.36 | 0.368 |  | 0.36 | 0.468 | 0.201 | 0.161 | 0.159 | 0.157 | 0.571 | 0.509 | 0.476 | 0.605 |
| NCI-H1755 | 0.938 | 0.966 | 1.02 | 0.991 | 1 | 0.618 | 0.631 | 0.665 | 0.747 | 0.619 | 0.616 | 0.357 | 0.406 | 0.437 | 0.91 | 0.746 | 0.806 | 0.999 |
| NCI-H1792 | 0.612 | 0.605 | 0.584 | 0.578 | 0.703 | 0.202 |  | 0.367 | 0.258 | 0.243 | 0.344 | 0.653 | 0.243 | 0.292 | 0.618 | 0.538 | 0.58 | 0.686 |
| NCI-H1793 | 0.594 | 0.445 | 0.41 | 0.583 | 0.33 | 0.295 | 0.313 | 0.307 | 0.39 | 0.362 | 0.581 | 0.18 |  | 0.604 | 0.731 | 0.625 | 0.553 | 0.731 |
| NCI-H1915 | 0.782 | 0.747 | 0.824 | 0.794 | 0.784 | 0.395 | 0.362 | 0.249 | 0.375 | 0.357 | 0.816 | 0.736 | 0.781 | 0.862 | 1.09 | 1.08 | 1.04 | 1.06 |
